pEC50, pIC50: −log10 of the molar value. Calls of active or inactive are those of the source. No cut-off for these calls is given here.
Experiments:
CCRF S-180 [1] = assay: Antiproliferative activity against mouse S180 cells assessed as cell viability after 48 hrs by MTT assay; type: functional, cell-based; conditions: CCRF S-180, 48 h
Calf thymus DNA [2] = assay: Binding affinity to calf thymus DNA at 40 uM by UV-spectrophotometric analysis; type: nucleic-acid assay; conditions: Bos taurus
CCRF S-180 [3] = assay: Antitumor activity against mouse S180 cells allografted in male ICR mouse assessed as tumor growth inhibition at 0.1 umol/kg, po treated ervery day for 7 days relative to NS control; type: functional, organism-based
HepG2 = assay: Antiproliferative activity against human HepG2 cells assessed as cell viability after 48 hrs by MTT assay; type: functional, cell-based; conditions: HepG2, 48 h
Calf thymus DNA [4] = assay: Binding affinity to calf thymus DNA at 40 uM by fluoresce spectrum analysis; type: nucleic-acid assay; conditions: Bos taurus
[5] = Antiproliferative activity against human HL60 cells assessed as cell viability after 48 hrs by MTT assay; type: functional, cell-based; conditions: HL-60, 48 h
CCRF S-180 [6] = assay: Antitumor activity against mouse S180 cells allografted in male ICR mouse assessed as tumor growth inhibition treated orally ervery day for 7 days; type: functional
Mus musculus [7] = assay: Antiinflammatory activity in male ICR mouse assessed as xylene-induced ear edema at 1 umol/kg, ip relative to NS; type: functional, organism-based
A549 = assay: Antiproliferative activity against human A549 cells assessed as cell viability after 48 hrs by MTT assay; type: functional, cell-based; conditions: A549, 48 h
K562 = assay: Antiproliferative activity against human K562 cells assessed as cell viability after 48 hrs by MTT assay; type: functional, cell-based; conditions: K562, 48 h
[8] = Antioxidant activity assessed as OH free radical scavenging activity produced from dimethylpyridine-N-oxide by ESR assay; type: physicochemical
Mus musculus [9] = assay: Antiinflammatory activity against xylene-induced male ICR mouse ear edema model assessed as plasma TNFalpha at 1 umol/kg, ip relative to NS; type: functional, organism-based
Mus musculus [10] = assay: Antiinflammatory activity against xylene-induced male ICR mouse ear edema model assessed as plasma IL-8 at 1 umol/kg, ip relative to NS; type: functional, organism-based
HeLa = assay: Antiproliferative activity against human HeLa cells assessed as cell viability after 48 hrs by MTT assay; type: functional, cell-based
[11] = Antioxidant activity assessed as NO free radical scavenging activity produced from N-methyl-D-glucamine dithiocarbamate by ESR assay; type: physicochemical
[12] = Antiproliferative activity against human SH-SY5Y cells assessed as cell viability after 48 hrs by MTT assay; type: functional, cell-based
[13] = Antioxidant activity assessed as O2 free radical scavenging activity produced from dimethylpyridine-N-oxide by ESR assay; type: physicochemical
HT-29 = assay: Antiproliferative activity against human HT-29 cells assessed as cell viability after 48 hrs by MTT assay; type: functional, cell-based; conditions: HT-29, 48 h

| pIC50 (CCRF S-180 [1]) | Activity (Calf thymus DNA [2]) | pIC50 (HepG2) | Activity (Calf thymus DNA [4]) | pIC50 (A549) | pIC50 (K562) | pEC50 [8] | pIC50 (HeLa) | pEC50 [11] | pEC50 [13] | pIC50 (HT-29) | SMILES | inhibition (CCRF S-180 [3]) | pIC50 [5] | inhibition (CCRF S-180 [6]) | inhibition (Mus musculus [7]) | inhibition (Mus musculus [9]) | inhibition (Mus musculus [10]) | pIC50 [12] |
| --- | --- | --- | --- | --- | --- | --- | --- | --- | --- | --- | --- | --- | --- | --- | --- | --- | --- | --- |
| 5.03 | – | – | – | – | – | – | – | – | – | – | COc1cccc2c1C(=O)c1c(O)c3c(c(O)c1C2=O)C[C@@](O)(C(=O)CO)C[C@@H]3O[C@H]1C[C@H](N)[C@H](O)[C@H](C)O1 [DOXORUBICIN] | – | – | – | – | – | – | – |
| 6.02 | Active | 6.02 | Active | 6.02 | 6.02 | 6.77 | 6.02 | 4.14 | 3.55 | 6.02 | COC(=O)c1cc(-c2nc(C(=O)OCc3ccccc3)cc3c2[nH]c2ccccc23)ccc1O | Dose-dependent effect | 6.02 | Dose-dependent effect | Active | Active | Active | 6.02 |

Reference: ChEMBL document CHEMBL3407399, “BPIC: A novel anti-tumor lead capable of inhibiting inflammation and scavenging free radicals” (Bioorg Med Chem Lett, 2015)
